For one molecule, IC50 and inhibition results are on record in ChEMBL document CHEMBL5316324, “Discovery, Characterization, and Engineering of LvIC, an α4/4-Conotoxin That Selectively Blocks Rat α6/α3β4 Nicotinic Acetylcholine Receptors” (J Med Chem, 2023).

Peptide text beside a SMILES is read from it.

In general, IC50 refers to the concentration that inhibits the measured activity by half. Usually inhibition stands for the relative decrease from the control value, in per cent.

The target of assay [1] is Nicotinic acetylcholine receptor alpha6/alpha3/beta2/beta3 (Rattus norvegicus, UniProt P04757+P12390+P12391+P43143). Put plainly: Inhibition of rat alpha6/alpha3beta2beta3 nAChR expressed in Stage V-VI Xenopus laevis Oocytes assessed as inhibition of acetylcholine-induced current in presence of acetylcholine by electrophysiological recording. It counts as cell-based, Oocyte.

In assay [2] the target is Nicotinic acetylcholine receptor alpha1/beta1/epsilon/delta (Mus musculus) (UniProt P04756+P09690+P02716+P20782). Nature of the assay: Inhibition of mouse alpha1/beta1deltaepsilon nAChR expressed in Stage V-VI Xenopus laevis Oocytes assessed as inhibition of acetylcholine-induced current at 10 uM in presence of acetylcholine by electrophysiological recording relative to control. The class given is cell-based. The note with it: Oocyte.

Nicotinic acetylcholine receptor alpha6/alpha3/beta2/beta3, sequence (P04757 whole entry): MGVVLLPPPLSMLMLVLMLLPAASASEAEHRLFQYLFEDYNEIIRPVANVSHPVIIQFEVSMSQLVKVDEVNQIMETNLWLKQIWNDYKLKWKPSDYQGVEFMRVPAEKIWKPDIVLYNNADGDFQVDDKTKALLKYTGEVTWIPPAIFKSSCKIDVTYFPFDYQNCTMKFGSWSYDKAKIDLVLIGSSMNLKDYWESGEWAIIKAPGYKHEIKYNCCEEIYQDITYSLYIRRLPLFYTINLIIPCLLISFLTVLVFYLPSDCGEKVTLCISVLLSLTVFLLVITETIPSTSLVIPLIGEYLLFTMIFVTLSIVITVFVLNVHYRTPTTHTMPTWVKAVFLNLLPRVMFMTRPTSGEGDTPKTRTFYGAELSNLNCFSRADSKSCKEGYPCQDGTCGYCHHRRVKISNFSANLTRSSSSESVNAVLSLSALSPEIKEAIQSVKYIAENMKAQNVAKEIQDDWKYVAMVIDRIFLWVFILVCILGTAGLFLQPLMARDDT
Nicotinic acetylcholine receptor alpha6/alpha3/beta2/beta3, sequence (P12390 whole entry): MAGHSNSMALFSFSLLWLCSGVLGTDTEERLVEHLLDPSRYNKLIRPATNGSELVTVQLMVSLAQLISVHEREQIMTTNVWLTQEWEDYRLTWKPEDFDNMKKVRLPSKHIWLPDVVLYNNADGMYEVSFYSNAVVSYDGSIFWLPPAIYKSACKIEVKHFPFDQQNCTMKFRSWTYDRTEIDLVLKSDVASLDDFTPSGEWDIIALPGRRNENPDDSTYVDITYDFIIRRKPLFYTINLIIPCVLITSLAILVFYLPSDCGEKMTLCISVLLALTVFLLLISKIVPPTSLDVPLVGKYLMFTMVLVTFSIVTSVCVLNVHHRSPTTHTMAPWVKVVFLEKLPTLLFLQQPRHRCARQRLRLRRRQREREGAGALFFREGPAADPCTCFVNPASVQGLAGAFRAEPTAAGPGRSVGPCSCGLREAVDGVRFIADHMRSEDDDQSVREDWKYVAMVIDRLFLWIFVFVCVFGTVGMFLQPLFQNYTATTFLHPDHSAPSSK
Nicotinic acetylcholine receptor alpha6/alpha3/beta2/beta3, sequence (P12391 whole entry): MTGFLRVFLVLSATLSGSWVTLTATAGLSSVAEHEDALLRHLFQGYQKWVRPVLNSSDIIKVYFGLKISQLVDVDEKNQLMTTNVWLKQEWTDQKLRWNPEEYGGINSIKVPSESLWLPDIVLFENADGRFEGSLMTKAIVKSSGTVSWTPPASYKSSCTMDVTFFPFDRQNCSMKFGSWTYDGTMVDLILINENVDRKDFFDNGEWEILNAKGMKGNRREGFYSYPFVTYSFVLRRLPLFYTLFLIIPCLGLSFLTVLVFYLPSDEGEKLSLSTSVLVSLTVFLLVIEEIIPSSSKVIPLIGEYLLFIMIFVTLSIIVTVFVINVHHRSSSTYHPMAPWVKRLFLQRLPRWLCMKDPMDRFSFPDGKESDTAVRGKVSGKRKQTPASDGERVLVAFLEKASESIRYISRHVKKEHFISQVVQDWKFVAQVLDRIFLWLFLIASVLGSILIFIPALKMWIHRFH
Nicotinic acetylcholine receptor alpha6/alpha3/beta2/beta3, sequence (P43143 whole entry): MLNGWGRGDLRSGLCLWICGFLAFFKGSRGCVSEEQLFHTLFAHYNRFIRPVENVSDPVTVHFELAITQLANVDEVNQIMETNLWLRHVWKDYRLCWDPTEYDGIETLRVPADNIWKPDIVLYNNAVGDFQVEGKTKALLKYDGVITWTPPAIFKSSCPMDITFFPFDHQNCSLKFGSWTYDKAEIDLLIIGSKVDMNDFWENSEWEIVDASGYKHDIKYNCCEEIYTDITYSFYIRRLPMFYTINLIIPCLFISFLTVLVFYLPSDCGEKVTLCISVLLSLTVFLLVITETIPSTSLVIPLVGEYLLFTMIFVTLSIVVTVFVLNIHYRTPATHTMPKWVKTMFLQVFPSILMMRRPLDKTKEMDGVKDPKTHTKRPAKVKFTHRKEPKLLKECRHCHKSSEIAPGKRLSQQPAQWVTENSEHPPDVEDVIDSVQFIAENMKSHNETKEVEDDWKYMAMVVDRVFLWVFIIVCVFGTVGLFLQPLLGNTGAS

Take `CC(C)[C@H](NC(=O)[C@@H]1CCCN1C(=O)[C@H](CC(N)=O)NC(=O)[C@H](C)NC(=O)[C@H](CS)NC(=O)[C@H](CS)NC(=O)[C@@H](N)CCCNC(=N)N)C(=O)N[C@@H](CS)C(=O)N[C@@H](CC(N)=O)C(=O)NCC(=O)N[C@@H](CCCCN)C(=O)N[C@@H](Cc1cnc[nH]1)C(=O)N[C@@H](CS)C(N)=O` (H-RCCANPVCNGKHC-NH2): the IC50 in assay [1] was above 10 µM. For the same molecule, in assay [2], the inhibition is below 50%.
